From the NIST ThermoML archive (doi:10.1016/j.fluid.2014.06.026)

Settings: 101.33 kPa, Liquid; for viscosity: Cone and plate viscometry; for mass density: Vibrating tube method

c1cn(CCOCCOCCOCCn2ccnc2)cn1
Settings	mass density [kg/m3]	viscosity [mPa·s]
298.2 K	1172.67	535.6
303.2 K	1168.77	356
308.2 K	1164.87	240.2
313.2 K	1161.05	178.2
318.2 K	1157.29	129.2
323.2 K	1153.51	93.9
328.2 K	1149.74	69.8
333.2 K	1145.96	56.8
338.2 K	1142.19	44.9
343.2 K	1138.43	36.7
348.2 K	1134.66	29.1
353.2 K	1130.91	24.9

CCCCCCCCCCCCn1ccnc1 [1-dodecyl-1H-imidazole]
Settings	mass density [kg/m3]	viscosity [mPa·s]
298.2 K	898.68	24
303.2 K	895.23	20.1
308.2 K	891.79	15.9
313.2 K	888.35	13.3
318.2 K	884.92	11.1
323.2 K	881.49	9.42
328.2 K	878.07	8.06
333.2 K	874.64	6.96
338.2 K	871.22	6
343.2 K	867.81	5.33
348.2 K	864.4	4.7
353.2 K	860.98	4.16
